What follows are compounds tested against T1, human orexin type 2 receptor (hOX2R) (Homo sapiens, UniProt O43614) (assay: Measurement of orexin type 2 receptor agonist activity (Fluo-4 calcium fluorescence, CHO cells forcibly expressing human OX2 receptor)). Details: test compound 3 μM, DMSO = 0%, orexin A (human) 10 nM = 100%.
T1 construct: expressed in transfected cells
T1 sequence (O43614 1-444): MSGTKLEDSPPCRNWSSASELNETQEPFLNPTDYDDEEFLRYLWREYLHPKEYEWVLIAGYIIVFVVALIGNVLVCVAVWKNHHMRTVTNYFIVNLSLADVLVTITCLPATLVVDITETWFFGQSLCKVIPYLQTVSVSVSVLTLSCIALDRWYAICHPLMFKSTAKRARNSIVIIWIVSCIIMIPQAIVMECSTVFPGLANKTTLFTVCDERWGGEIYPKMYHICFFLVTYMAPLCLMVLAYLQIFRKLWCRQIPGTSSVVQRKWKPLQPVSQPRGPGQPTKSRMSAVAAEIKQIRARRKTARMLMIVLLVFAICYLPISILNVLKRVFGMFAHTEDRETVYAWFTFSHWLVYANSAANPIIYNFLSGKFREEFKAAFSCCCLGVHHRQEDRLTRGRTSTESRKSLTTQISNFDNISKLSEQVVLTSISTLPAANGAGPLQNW
Assay type: cell-based
From the text: Experimental Example 1: Obtainment of Cell Stably Expressing Human Orexin Type 2 Receptor (hOX2R)
To obtain a cell clone stably expressing human orexin type 2 receptor, human orexin type 2 receptor cDNA was inserted into pcDNA3.1(+) plasmid vector (Invitrogen), and a plasmid DNA for expression of human orexin type 2 receptor (pcDNA3.1(+)/hOX2R) was cloned. The plasmid DNA was introduced into CHO-dhfr cell by an electroporation method, and human orexin type 2 receptor expressing clone cells were obtained by limiting dilution method by using G418 drug resistance as a selection marker.
Experimental Example 2: Measurement of Orexin Type 2 Receptor Agonist Activity
CHO cells forcibly expressing human OX2 receptor were seeded in each well of 384 well black transparent bottom plate (BD Falcon) at 7,500 cells/well, and cultured for one day in a 5% CO2 incubator at 37° C. After removal of the medium in the cell plate, assay buffer A containing a calcium indicator (HBSS (Life Technologies), 20 mM HEPES (Life Technologies), 0.1% BSA (Wako Pure Chemical Industries, Ltd.), 2.5 μg/mL Fluo-4 AM (DOJINDO Chemical), 0.08% Pluronic F127 (DOJINDO Chemical), 1.25 mM probenecid (DOJINDO Chemical)) was added at 30 μL/well. The plate was stood for 30 min in a 5% CO2 incubator at 37° C., and further stood at room temperature for 30 min. A test compound prepared by diluting with assay buffer B (HBSS, 20 mM HEPES, 0.1% BSA) was added at 10 μL/well, and the fluorescence value was measured by FDSSpCELL (Hamamatsu Photonics K.K.) every one sec for 1 min, and thereafter every two sec for 1 min 40 sec. The activity (%) of the test compound was calculated assuming that variation in the fluorescence value when DMSO was added instead of the test compound was 0% […], and variation in the fluorescence value when orexin A (human) (PEPTIDE INSTITUTE, INC.) was added at the final concentration of 10 nM was 100% […]. The activity of each compound at the concentration of 3 μM was shown below.

Row | SMILES | OX2R agonist activity (3 μM, %)
1 | CO[C@@H]1CN(C(=O)c2cc(C)ccc2C)C[C@H]1Oc1cccc(NS(=O)(=O)N2CCOCC2)c1 (relative stereo) [Example 4, trans-N-(3-((1-(2,5-dimethylbenzoyl)-4-methoxypyrrolidin-3-yl)oxy)phenyl)morpholine-4-sulfonamide] | 87%
2 | CO[C@@H]1CN(C(=O)c2cc(C)ccc2C)C[C@H]1Oc1cccc(CS(=O)(=O)N(C)c2ccncc2)c1 (relative stereo) [Example 7, trans-1-(3-((1-(2,5-dimethylbenzoyl)-4-methoxypyrrolidin-3-yl)oxy)phenyl)-N-methyl-N-(pyridin-4-yl)methanesulfonamide] | 32%
3 | CO[C@@H]1CN(C(=O)c2cc(C)ccc2C)C[C@H]1Oc1cccc(CS(=O)(=O)N2CCCC2c2ccccn2)c1 (relative stereo) [Example 15, trans-(2,5-dimethylphenyl)(3-methoxy-4-(3-(((2-(pyridin-2-yl)pyrrolidin-1-yl)sulfonyl)methyl)phenoxy)pyrrolidin-1-yl)methanone] | 80%
4 | CO[C@@H]1CN(C(=O)c2cc(C)ccc2C)C[C@H]1Oc1cccc(CS(=O)(=O)N2CCCC2c2cccnc2)c1 (relative stereo) [Example 16, trans-(2,5-dimethylphenyl)(3-methoxy-4-(3-(((2-(pyridin-3-yl)pyrrolidin-1-yl)sulfonyl)methyl)phenoxy)pyrrolidin-1-yl)methanone] | 77%
5 | CO[C@@H]1CN(C(=O)c2cc(C)ccc2C)C[C@H]1Oc1cccc(CS(=O)(=O)N2CCCC2c2ccncc2)c1 (relative stereo) [Example 18, trans-(2,5-dimethylphenyl)(3-methoxy-4-(3-(((2-(pyridin-4-yl)pyrrolidin-1-yl)sulfonyl)methyl)phenoxy)pyrrolidin-1-yl)methanone] | 75%
6 | CO[C@@H]1CN(C(=O)c2cc(C)ccc2C)C[C@H]1Oc1cccc(NS(=O)(=O)N2CCCC2)c1 (relative stereo) [Example 22, trans-N-(3-((1-(2,5-dimethylbenzoyl)-4-methoxypyrrolidin-3-yl)oxy)phenyl)pyrrolidine-1-sulfonamide] | 65%
7 | CO[C@@H]1CN(C(=O)c2cc(C)ccc2C)C[C@H]1Oc1cccc(NS(=O)(=O)N2CCCC2C)c1 (relative stereo) [Example 23, trans-N-(3-((1-(2,5-dimethylbenzoyl)-4-methoxypyrrolidin-3-yl)oxy)phenyl)-2-methylpyrrolidine-1-sulfonamide] | 60%
8 | CO[C@@H]1CN(C(=O)c2cc(C)ccc2C)C[C@H]1Oc1cccc(CS(=O)(=O)N2CCCC2Cc2cccnc2)c1 (relative stereo) [Example 36, trans-(2,5-dimethylphenyl)(3-methoxy-4-(3-(((2-(pyridin-3-ylmethyl)pyrrolidin-1-yl)sulfonyl)methyl)phenoxy)pyrrolidin-1-yl)methanone] | 89%
9 | CO[C@@H]1CN(C(=O)c2cc(C)ccc2C)C[C@H]1Oc1cccc(CS(=O)(=O)N2CCCC2c2ccccc2Cl)c1 (relative stereo) [Example 37, trans-(3-(3-(((2-(2-chlorophenyl)pyrrolidin-1-yl)sulfonyl)methyl)phenoxy)-4-methoxypyrrolidin-1-yl)(2,5-dimethylphenyl)methanone] | 86%
10 | CO[C@@H]1CN(C(=O)c2cc(C)ccc2C)C[C@H]1Oc1cccc(CS(=O)(=O)N2CCCC2c2ncccn2)c1 (relative stereo) [Example 38, trans-(2,5-dimethylphenyl)(3-methoxy-4-(3-(((2-(pyrimidin-2-yl)pyrrolidin-1-yl)sulfonyl)methyl)phenoxy)pyrrolidin-1-yl)methanone] | 98%
11 | CO[C@@H]1CN(C(=O)c2cc(C)ccc2C)C[C@H]1Oc1cccc(CS(=O)(=O)N2CCCC2c2cnccn2)c1 (relative stereo) [Example 39, trans-(2,5-dimethylphenyl)(3-methoxy-4-(3-(((2-(pyrazin-2-yl)pyrrolidin-1-yl)sulfonyl)methyl)phenoxy)pyrrolidin-1-yl)methanone] | 76%

Second part, the compound after the results:

Row | OX2R agonist activity (3 μM, %) | SMILES
12 | 32% | CO[C@@H]1CN(C(=O)c2cc(C)ccc2C)C[C@H]1Oc1cccc(CS(=O)(=O)N2CCCC2)c1 (relative stereo) [Example 5, trans-(2,5-dimethylphenyl)(3-methoxy-4-(3-((pyrrolidin-1-ylsulfonyl)methyl)phenoxy)pyrrolidin-1-yl)methanone]
13 | 62% | CO[C@@H]1CN(C(=O)c2cc(C)ccc2C)C[C@H]1Oc1cccc(CS(=O)(=O)N2CCOCC2CO)c1 (relative stereo) [Example 11, trans-(2,5-dimethylphenyl)(3-(3-(((3-(hydroxymethyl)morpholin-4-yl)sulfonyl)methyl)phenoxy)-4-methoxypyrrolidin-1-yl)methanone]
14 | 60% | COC(=O)C1COCCN1S(=O)(=O)Cc1cccc(O[C@@H]2CN(C(=O)c3cc(C)ccc3C)C[C@H]2OC)c1 (relative stereo) [Example 12, methyl trans-4-((3-((1-(2,5-dimethylbenzoyl)-4-methoxypyrrolidin-3-yl)oxy)benzyl)sulfonyl)morpholine-3-carboxylate]
15 | 67% | CO[C@@H]1CN(C(=O)c2cc(C)ccc2C)C[C@H]1Oc1cccc(CS(=O)(=O)N2CCC23CCOC3)c1 (relative stereo) [Example 19, trans-(2,5-dimethylphenyl)(3-methoxy-4-(3-((6-oxa-1-azaspiro[3.4]oct-1-ylsulfonyl)methyl)phenoxy)pyrrolidin-1-yl)methanone]
16 | 70% | CO[C@@H]1CN(C(=O)c2cc(C)ccc2C)C[C@H]1Oc1cccc(CS(=O)(=O)N2CCC23CCOCC3)c1 (relative stereo) [Example 21, trans-(2,5-dimethylphenyl)(3-methoxy-4-(3-((7-oxa-1-azaspiro[3.5]non-1-ylsulfonyl)methyl)phenoxy)pyrrolidin-1-yl)methanone]
17 | 94% | CO[C@@H]1CN(C(=O)c2cc(C)ccc2C)C[C@H]1Oc1cccc(CS(=O)(=O)N(C)C2CCOCC2)c1 (relative stereo) [Example 31, trans-1-(3-((1-(2,5-dimethylbenzoyl)-4-methoxypyrrolidin-3-yl)oxy)phenyl)-N-methyl-N-(tetrahydro-2H-pyran-4-yl)methanesulfonamide]
18 | 109% | CO[C@@H]1CN(C(=O)c2cc(C)ccc2C)C[C@H]1Oc1cccc(CS(=O)(=O)N2CCC23CN(C(=O)OC(C)(C)C)C3)c1 (relative stereo) [Example 32, tert-butyl trans-1-((3-((1-(2,5-dimethylbenzoyl)-4-methoxypyrrolidin-3-yl)oxy)benzyl)sulfonyl)-1,6-diazaspiro[3.3]heptane-6-carboxylate]
19 | 105% | CO[C@@H]1CN(C(=O)c2cc(C)ccc2C)C[C@H]1Oc1cccc(CS(=O)(=O)N2CCC23CCN(C(=O)OC(C)(C)C)C3)c1 (relative stereo) [Example 33, tert-butyl trans-1-((3-((1-(2,5-dimethylbenzoyl)-4-methoxypyrrolidin-3-yl)oxy)benzyl)sulfonyl)-1,6-diazaspiro[3.4]octane-6-carboxylate]
20 | 87% | CO[C@@H]1CN(C(=O)c2cc(C)ccc2C)C[C@H]1Oc1cccc(CS(=O)(=O)N2CCC23COC3)c1 (relative stereo) [Example 34, trans-(2,5-dimethylphenyl)(3-methoxy-4-(3-((6-oxa-1-azaspiro[3.3]hept-1-ylsulfonyl)methyl)phenoxy)pyrrolidin-1-yl)methanone]
21 | 79% | CO[C@@H]1CN(C(=O)c2cc(C)ccc2C)C[C@H]1Oc1cccc(CS(=O)(=O)N2CCCC2c2nccs2)c1 (relative stereo) [Example 40, trans-(2,5-dimethylphenyl)(3-methoxy-4-(3-(((2-(1,3-thiazol-2-yl)pyrrolidin-1-yl)sulfonyl)methyl)phenoxy)pyrrolidin-1-yl)methanone]
